The values that follow are results of earlier work, collected in US20050148561A1, “Novel triterpene derivatives, preparation thereof and use thereof” (Panacos Pharmaceuticals, Inc., priority 2003, published 2005).

SMILES strings stand for the structures. Where two headings read alike, the source gives them in different places.

The data set relates to HIV-1.

As usually defined, the EC50 is the concentration needed to bring the measured effect to its halfway point. As to `CC(C)[C@@H]1CC[C@]2(C(=O)O)CC[C@]3(C)C(CCC4[C@@]5(C)CC[C@H](O)C(C)(C)C5CC[C@]43C)C12` (stereo partly shown) [dihydrobetulinic acid], the T.I. (H9 lymphocyte cells) is 14. For the same compound, the half-maximal effective concentration (EC50) (unit inferred, read-out: EC50, anti-HIV activity) was 0.9 µM.
For the compound `CC(=O)[C@@H]1CC[C@]2(C(=O)O)CC[C@]3(C)[C@H](CC[C@@H]4[C@@]5(C)CC[C@H](O)C(C)(C)[C@@H]5CC[C@]43C)[C@@H]12` [platanic acid], the T.I. (H9 lymphocyte cells) is on record as 14. Under “H9 lymphocyte cells, read-out: EC50, inhibitory activity against HIV-1 replication”, the EC50 was 6.5 µM.
